# In EP3074389B1, “QUINOLINE DERIVATIVES AS BROMODOMAIN INHIBITORS” (Gilead Sciences, Inc., priority 2013, dated 2015):
# Experiments:
# [1] = target: BRD4 domain 2 (Homo sapiens, UniProt O60885); assay: Kd determination of inhibitors binding to BRD4 domain 2 (Epic label-free platform); conditions: direct binding to immobilized BRD4 domain 2; tripling dilution series from 20µM; about 1hr equilibrium; rounded to whole number
# Experimental: (§1) Kd Determination of Inhibitors Binding to BRD4 Domain 1 and Domain 2
# (§2) The binding of small molecule inhibitors to either BRD4 domain 1 or domain 2 were determined using the Epic, high-throughput, label-free platform (Corning, Lowell, MA). The Epic instrument incorporates an evanescent waveguide sensor within each well of its proprietary 384-well microplates. Direct binding of inhibitors to BRD4 immobilized onto the microplate well surface can be detected by exposing the waveguide to a broadband light source. The resulting resonant wavelength shift (measured in picometers (pm)) is proportional to the mass bound to the surface. Epic biochemical plates (Corning, Lowell, MA) were activated by adding 15 µL/well of 200 mM EDC and 50 mM Sulfo-NHS (Pierce Thermo Scientific, Rockford, IL) and incubated for 60 minutes at room temperature. Plates were washed three times with MilliQ water and dried by centrifugation (1 minute at 400 rpm). BRD4 immobilization was accomplished by resuspending the protein at a concentration of 150 µg/mL in 20 mM HEPES (pH 7) and adding 10 µL/well. […] Compound/inhibitor binding was determined by calculating difference between the baseline (first read) and second read. The resulting binding response was fitted to a single site binding isotherm in order to determine an equilibrium dissociation constant (Kd).
# [2] = target: BRD4 domain 1 (Homo sapiens, UniProt O60885); assay: Kd determination of inhibitors binding to BRD4 domain 1 (Epic label-free platform); conditions: direct binding to immobilized BRD4 domain 1; tripling dilution series from 20µM; about 1hr equilibrium; rounded to whole number; read-out: Epic Kd BRD41
# Experimental: as §1, §2
Structure (SMILES),Kd [1] [µM],Kd [2] [µM]
"Cc1noc(C)c1-c1cc(S(=O)(=O)NC2CCCC2)c2cc(NCC(C)(C)O)c(=O)[nH]c2c1 [Compound 98, N-cyclopentyl-7-(3,5-dimethylisoxazol-4-yl)-3-((2-hydroxy-2-methylpropyl)amino)-2-oxo-1,2-dihydroquinoline-5-sulfonamide]",0.545,1.03
"Cc1noc(C)c1-c1cc(S(=O)(=O)NC2CC3CCC(C2)N3C)c2cccnc2c1 (stereo not drawn) [Compound 40, 7-(3,5-dimethylisoxazol-4-yl)-N-(8-methyl-8-azabicyclo[3.2.1]octan-3-yl)quinoline-5-sulfonamide]",> 20,16
"Cc1noc(C)c1-c1cc(S(=O)(=O)NC2(C(F)(F)F)CC2)c2cccnc2c1 [Compound 84, 7-(3,5-dimethylisoxazol-4-yl)-N-(1-(trifluoromethyl)cyclopropyl)quinoline-5-sulfonamide]",18.2,2
"Cc1noc(C)c1-c1cc(S(=O)(=O)NC2CCCC2)c2ccc(OCC3CC3)nc2c1 [Compound 6, N-cyclopentyl-2-(cyclopropylmethoxy) -7-(3,5-dimethylisoxazol-4-yl)quinoline-5-sulfonamide]",2.04,2.11
"Cc1noc(C)c1-c1cc(S(=O)(=O)NC2CCCC2)c2cc(NC3CCN(C)CC3)c(=O)[nH]c2c1 [Compound 66, N-cyclopentyl-7-(3,5-dimethylisoxazol-4-yl)-3-((1-methylpiperidin-4-yl)amino)-2-oxo-1,2-dihydroquinoline-5-sulfonamide]",0.421,0.52
"Cc1noc(C)c1-c1cc(S(=O)(=O)NC2CCCC2)c2ncc(=O)[nH]c2c1 [Compound 87, N-cyclopentyl-7-(3,5-dimethylisoxazol-4-yl)-2-oxo-1,2-dihydroquinoxaline-5-sulfonamide]",1.34,2.2
"Cc1noc(C)c1-c1cc(S(=O)(=O)NC2CCCC2)c2cc(N(C)C)c(=O)[nH]c2c1 [Compound 61, N-cyclopentyl-3-(dimethylamino)-7-(3,5-dimethylisoxazol-4-yl)-2-oxo-1,2-dihydroquinoline-5-sulfonamide]",0.645,1.02
"Cc1noc(C)c1-c1cc(S(=O)(=O)N[C@@H]2CCC[C@@H]2C(=O)NCc2nccn2C)c2cccnc2c1 [Compound 43, (1S,2R)-2-(7-(3,5-dimethylisoxazol-4-yl)quinoline-5-sulfonamido)-N-((1-methyl-1H-imidazol-2-yl)methyl)cyclopentan ecarboxamide]",10.7,> 20
"Cc1noc(C)c1-c1cc(S(=O)(=O)NC2CCCC2)c2cc(NCC(F)F)c(=O)[nH]c2c1 [Compound 79, N-cyclopentyl-3-((2,2-difluoroethyl)amino)-7-(3,5-dimethylisoxazol-4-yl)-2-oxo-1,2-dihydroquinoline-5-sulfonamide]",0.607,1.35
"Cc1noc(C)c1-c1cc(S(=O)(=O)NC2CCCC2)c2cc(N3CCN(C)CC3)c(=O)[nH]c2c1 [Compound 65, N-cyclopentyl-7-(3,5-dimethylisoxazol-4-yl)-3-(4-methylpiperazin-1-yl)-2-oxo-1,2-dihydroquinoline-5-sulfonamide]",0.546,0.981
"Cc1noc(C)c1-c1cc(S(=O)(=O)NC2CCCC2)c2ccc(N3CCNCC3)nc2c1 [Compound 44, N-cyclopentyl-7-(3,5-dimethylisoxazol-4-yl)-2-(piperazin-1-yl)quinoline-5-sulfonamide]",0.504,0.799
"COCCNc1cc2c(S(=O)(=O)NC3CCCC3)cc(-c3c(C)noc3C)cc2[nH]c1=O [Compound 58, N-cyclopentyl-7-(3,5-dimethylisoxazol-4-yl)-3-((2-methoxyethyl)amino)-2-oxo-1,2-dihydroquinoline-5-sulfonamide]",0.32,0.313
"Cc1noc(C)c1-c1cc(S(=O)(=O)NC2CCCC2)c2cc(NCc3cccnc3)c(=O)[nH]c2c1 [Compound 67, N-cyclopentyl-7-(3,5-dimethylisoxazol-4-yl)-2-oxo-3-((pyridin-3-ylmethyl)amino)-1,2-dihydroquinoline-5-sulfonamide]",0.404,0.444
"Cc1noc(C)c1-c1cc(S(=O)(=O)NC2CCCC2)c2cc(-c3ncccn3)c(=O)[nH]c2c1 [Compound 37, N-cyclopentyl-7-(3,5-dimethylisoxazol-4-yl)-2-oxo-3-(pyrimidin-2-yl)-1,2-dihydroquinoline-5-sulfonamide]",0.757,2.09
"Cc1noc(C)c1-c1cc(S(=O)(=O)NC2CCCC2)c2cc(NC3COC3)c(=O)[nH]c2c1 [Compound 96, N-cyclopentyl-7-(3,5-dimethylisoxazol-4-yl)-3-(oxetan-3-ylamino)-2-oxo-1,2-dihydroquinoline-5-sulfonamide]",0.433,0.467
"Cc1noc(C)c1-c1cc(S(=O)(=O)NC2CCCC2)c2cc(N3CCOCC3)c(=O)[nH]c2c1 [Compound 55, N-cyclopentyl-7-(3,5-dimethylisoxazol-4-yl)-3-morpholino-2-oxo-1,2-dihydroquinoline-5-sulfonamide]",0.726,1.34
"Cc1noc(C)c1-c1cc(S(=O)(=O)NC2CCCC2)c2cc(NCC(O)CO)c(=O)[nH]c2c1 (stereo not drawn) [Compound 93, N-cyclopentyl-3-((2,3-dihydroxypropyl)amino)-7-(3,5-dimethylisoxazol-4-yl)-2-oxo-1,2-dihydroquinoline-5-sulfonamide]",0.417,0.951
"Cc1noc(C)c1-c1cc(S(=O)(=O)NC2CCCC2)c2cc(NCCO)c(=O)[nH]c2c1 [Compound 57, N-cyclopentyl-7-(3,5-dimethylisoxazol-4-yl)-3-((2-hydroxyethyl)amino)-2-oxo-1,2-dihydroquinoline-5-sulfonamide]",0.477,0.444
Cc1noc(C)c1-c1cc(S(=O)(=O)NC2CC2(C)C)c2cccnc2c1 (stereo not drawn) [Compound 83],16.6,16.7

# The remaining lines, values ahead:
Kd [1] [µM],Kd [2] [µM],Structure (SMILES)
8.64,> 20,"CCN[C@H]1CCC[C@H]1NS(=O)(=O)c1cc(-c2c(C)noc2C)cc2ncccc12 [Compound 53, 7-(3,5-dimethylisoxazol-4-yl)-N-((1R,2S)-2-(ethylamino)cyclopentyl)quinoline-5-sulfonamide]"
1.9,1.92,"Cc1noc(C)c1-c1cc(S(=O)(=O)N[C@@H]2CCC[C@H]2O)c2ccc(=O)[nH]c2c1 [Compound 82, 7-(3,5-dimethylisoxazol-4-yl)-N-((1R,2R)-2-hydroxycyclopentyl)-2-oxo-1,2-dihydroquinoline-5-sulfonamide]"
19.7,> 20,"Cc1noc(C)c1-c1cc(S(=O)(=O)N[C@@H]2CCC[C@H]2C(=O)NC2CCCC2)c2cccnc2c1 [Compound 35, (1R,2R)-N-cyclopentyl-2-(7-(3,5-dimethylisoxazol-4-yl)quinoline-5-sulfonamido)cyclopen tanecarboxamide]"
11.7,> 20,"Cc1noc(C)c1-c1cc(S(=O)(=O)NC2(C#N)CCCC2)c2cccnc2c1 [Compound 52, N-(1-cyanocyclopentyl)-7-(3,5-dimethylisoxazol-4-yl)quinoline-5-sulfonamide]"
1.46,1.06,"Cc1noc(C)c1-c1cc(S(=O)(=O)NC2CCCC2)c2ccc(NCC3CC3)nc2c1 [Compound 5, N-cyclopentyl-2-((cyclopropylmethyl)amino)-7-(3,5-dimethylisoxazol-4-yl)quinoline-5-sulfonamide]"
7.83,6.42,"Cc1noc(C)c1-c1cc(S(=O)(=O)N[C@@H]2CCC[C@H]2N)c2cccnc2c1 (stereo in doubt) [Compound 46, N-((1R,2R)-2-aminocyclopentyl)-7-(3,5-dimethylisoxazol-4-yl)quinoline-5-sulfonamide]"
17.5,14.1,"Cc1noc(C)c1-c1cc(S(=O)(=O)NCCN)c2cccnc2c1 [Compound 74, N-(2-aminoethyl)-7-(3,5-dimethylisoxazol-4-yl)quinoline-5-sulfonamide]"
2.25,3.95,"Cc1noc(C)c1-c1cc(S(=O)(=O)NC2CC2)c2cccnc2c1 [Compound 8, N-cyclopropyl-7-(3,5-dimethylisoxazol-4-yl)quinoline-5-sulfonamide]"
> 20,14.6,"Cc1noc(C)c1-c1cc(S(=O)(=O)N[C@@H]2CCC[C@H]2NC(=O)OC(C)(C)C)c2cccnc2c1 [Compound 45, tert-butyl ((1R,2R)-2-(7-(3,5-dimethylisoxazol-4-yl)quinoline-5-sulfonamido)cyclopentyl)carbamate]"
16.7,19.5,"Cc1noc(C)c1-c1cc(S(=O)(=O)N[C@@H]2CCC[C@@H]2O)c2cccnc2c1 [Compound 23, 7-(3,5-dimethylisoxazol-4-yl)-N-((1R,2S)-2-hydroxycyclopentyl)q uinoline-5-sulfonamide]"
2.97,1.25,"Cc1noc(C)c1-c1cc(S(=O)(=O)NC2CCCC2)c2ccc(Cl)nc2c1 [Compound 3, 2-chloro-N-cyclopentyl-7-(3,5-dimethylisoxazol-4-yl)quinoline-5-sulfonamide]"
